What was measured:
Assay in all cases: relative viability (nuclei count vs DMSO), 5 days (fraction); higher = more cells survive
[1] = compound: Cn1cc(-c2cnn3c(N)c(Br)c([C@@H]4CCCNC4)nc23)cn1 + CC1(C)CCC(c2ccc(Cl)cc2)=C(CN2CCN(c3ccc(C(=O)NS(=O)(=O)c4ccc(N[C@H](CCN5CCOCC5)CSc5ccccc5)c(S(=O)(=O)C(F)(F)F)c4)cc3)CC2)C1 [Navitoclax] (partner 0.5 µM)
Procedure, shortened: (§1)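 Lung cancer cell lines in 1536-well plates were dosed by pin tool the day after seeding, either with one drug alone or with a fixed anchor-drug dose plus five library-drug doses (not always all listed) in √10 steps. After 5 days, cells were fixed and their nuclei stained in one step (final 0.05% Triton X-100, 1% formaldehyde, 1 ug/ml Hoechst), then counted on 4× images. Relative viability is the nuclei count in treated wells divided by that in vehicle wells. Values are medians of duplicate plates.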

[2] = compound: Cn1cc(-c2cnn3c(N)c(Br)c([C@@H]4CCCNC4)nc23)cn1 + C[C@@H](Oc1cc(-c2cnn(C3CCNCC3)c2)cnc1N)c1c(Cl)ccc(F)c1Cl [Crizotinib] (partner 1 µM)
Procedure, shortened: as §1

[3] = compound: Cn1cc(-c2cnn3c(N)c(Br)c([C@@H]4CCCNC4)nc23)cn1 + Cc1nc(Nc2ncc(C(=O)Nc3c(C)cccc3Cl)s2)cc(N2CCN(CCO)CC2)n1 [Dasatinib] (partner 0.075 µM)
Procedure, shortened: as §1

[4] = compound: Cn1cc(-c2cnn3c(N)c(Br)c([C@@H]4CCCNC4)nc23)cn1 + O=C(CCCCCCC(=O)Nc1ccccc1)NO [Vorinostat] (partner 1 µM)
Procedure, shortened: as §1

| Cell Line | relative viability ([1]; first compound 0.05 µM) | relative viability ([1]; first compound 0.1581 µM) | relative viability ([1]; first compound 0.5 µM) | relative viability ([1]; first compound 1.581 µM) | relative viability ([1]; first compound 5 µM) | relative viability ([2]; first compound 0.05 µM) | relative viability ([2]; first compound 0.1581 µM) | relative viability ([2]; first compound 0.5 µM) | relative viability ([2]; first compound 1.581 µM) | relative viability ([2]; first compound 5 µM) | relative viability ([3]; first compound 0.05 µM) | relative viability ([3]; first compound 0.1581 µM) | relative viability ([3]; first compound 0.5 µM) | relative viability ([3]; first compound 1.581 µM) | relative viability ([3]; first compound 5 µM) | relative viability ([4]; first compound 0.05 µM) | relative viability ([4]; first compound 0.1581 µM) | relative viability ([4]; first compound 0.5 µM) | relative viability ([4]; first compound 1.581 µM) | relative viability ([4]; first compound 5 µM) |
| --- | --- | --- | --- | --- | --- | --- | --- | --- | --- | --- | --- | --- | --- | --- | --- | --- | --- | --- | --- | --- |
| NCI-H1437 | 1.15 | 1.25 | 1.05 | 1.03 | 1.08 | 1.09 | 1.05 | 0.967 | 0.693 | 0.849 | 0.389 | 0.39 | 0.4 | 0.298 | 0.343 | 0.907 | 0.927 | 0.955 | 0.692 | 0.508 |
| NCI-H2170 | 0.584 | 0.554 | 0.453 | 0.527 | 0.713 | 1.19 | 1.21 | 1.19 | 1.16 | 1.12 | 0.713 | 0.541 | 0.524 | 0.551 | 0.446 | 0.826 | 0.882 | 0.659 | 0.796 | 0.989 |
| NCI-H441 | 0.534 | 0.857 | 0.671 | – | 0.696 | 0.639 | 1.24 | 0.648 | 0.703 | 0.709 | 0.589 | 0.736 | 0.476 | 0.487 | 0.601 | 0.759 | 0.896 | 0.721 | 0.429 | 0.326 |
| SK-LU-1 | 0.717 | – | 0.254 | 0.188 | 0.186 | 0.877 | – | 0.483 | 0.33 | 0.264 | 0.173 | 0.132 | 0.148 | 0.164 | 0.118 | 0.92 | 0.631 | 0.407 | 0.369 | 0.281 |
| BEN | 0.0592 | 0.289 | 0.0589 | 0.0666 | 0.0768 | 0.911 | 0.969 | 0.861 | 0.745 | 0.608 | 0.316 | 0.286 | 0.347 | 0.327 | 0.265 | 0.659 | 0.531 | 0.558 | 0.644 | 0.508 |
| LC-2-ad | 0.394 | 0.606 | 0.395 | 0.423 | 0.429 | 0.503 | 0.439 | 0.419 | 0.447 | 0.426 | 0.486 | 0.544 | 0.504 | 0.327 | 0.458 | 0.683 | 0.808 | 0.662 | 0.76 | 0.735 |
| COR-L23 | 0.854 | 1.13 | 0.973 | 0.965 | 0.346 | 0.594 | 0.809 | 0.731 | 0.518 | 0.179 | 0.495 | 0.451 | 0.441 | 0.343 | 0.2 | 0.387 | 0.273 | 0.24 | 0.187 | 0.117 |
| NCI-H1650 | 1.27 | 1.23 | 1.25 | 0.845 | 0.67 | 1.08 | 0.909 | 1.29 | 0.709 | 0.477 | – | 0.296 | 0.257 | 0.256 | 0.178 | 0.594 | 0.524 | 0.471 | 0.595 | 0.336 |
| RERF-LC-KJ | 1.2 | 0.927 | 0.884 | 0.707 | 0.678 | 0.828 | 0.958 | 0.775 | 0.788 | 0.8 | 0.936 | 0.806 | 0.813 | 0.572 | 0.618 | 0.636 | 0.808 | 0.802 | 0.599 | 0.6 |
| NCI-H1915 | 0.796 | 0.805 | 0.736 | 0.765 | 0.775 | 0.674 | 0.871 | 0.906 | 0.697 | 0.905 | 0.307 | 0.351 | 0.355 | 0.347 | 0.283 | 0.511 | 0.535 | 0.666 | 0.574 | 0.432 |
| NCI-H596 | 1.01 | 1.02 | 1.13 | 0.847 | 0.904 | 0.943 | 1.01 | 1.05 | 0.906 | 0.953 | 0.668 | 0.549 | 0.552 | 0.545 | 0.589 | 0.517 | 0.602 | 0.624 | 0.356 | 0.455 |
| NCI-H2009 | 1.16 | 1.28 | 1.1 | 1.1 | 1 | 1.05 | 1.03 | 1.08 | 0.881 | 0.678 | 0.3 | 0.291 | 0.257 | 0.219 | 0.216 | 0.82 | 0.806 | 0.722 | 0.818 | 0.528 |
| NCI-H2126 | 0.915 | 0.883 | 0.861 | 0.804 | 0.863 | 1.1 | 1.09 | 1.07 | 0.932 | 1.03 | 0.581 | 0.58 | 0.568 | 0.506 | 0.488 | 0.694 | 0.788 | 0.762 | 0.683 | 0.68 |
| LXF-289 | 0.96 | 1.06 | 1.07 | 0.906 | 1.02 | 0.82 | 0.929 | 0.945 | 0.81 | 0.807 | 0.216 | 0.209 | 0.181 | 0.221 | 0.209 | 0.731 | 0.795 | 0.745 | 0.746 | 0.757 |
| PC-14 | 1.06 | 1.14 | 0.924 | 0.69 | 0.444 | 0.95 | 1.06 | 1.01 | 0.83 | 0.386 | 0.272 | 0.203 | 0.196 | 0.113 | 0.063 | 0.752 | 0.601 | 0.527 | 0.223 | 0.117 |
| HOP-62 | 0.985 | 1.18 | 1.16 | 0.97 | 0.479 | 0.999 | 1.07 | 1.01 | 0.925 | 0.884 | 0.66 | 0.702 | 0.568 | 0.589 | 0.316 | 0.698 | 0.775 | 0.645 | 0.386 | 0.209 |
